Source: US20240384268A1, “Oligonucleotides” (Hudson Institute of Medical Research, priority 2021, published 2024)
Read-outs that look alike come from different tables or passages of the source. In the oligonucleotide strings, read from the 5' end, every base follows the letter of its sugar. An asterisk marks phosphorothioate; unmarked linkages are phosphodiester. Other units and linkages are bracketed, terminal groups are in braces. A string of capitals states the bases alone. d = 2'-deoxy (DNA); m = 2'-O-methyl

Assays:
cGAS = cGAS (Homo sapiens, UniProt Q8N884); experiment: ISD70-driven IP-10 (and IFN-β) production in THP-1 cells, ELISA; format: cell-based; set-up: endogenous in cells; host or cells: THP-1 (undifferentiated); conditions: THP-1; for IFN-β production after ISD70 transfection: reduction: 125 nM oligonucleotide 6 h, ISD70 overnight; for IC50: 6 h pre-treatment, ISD70 2.5 μg/ml overnight (FIG. 3A), read-out: IC50 (IP-10 production after ISD70 transfection)
Sequence of cGAS (Q8N884 whole entry): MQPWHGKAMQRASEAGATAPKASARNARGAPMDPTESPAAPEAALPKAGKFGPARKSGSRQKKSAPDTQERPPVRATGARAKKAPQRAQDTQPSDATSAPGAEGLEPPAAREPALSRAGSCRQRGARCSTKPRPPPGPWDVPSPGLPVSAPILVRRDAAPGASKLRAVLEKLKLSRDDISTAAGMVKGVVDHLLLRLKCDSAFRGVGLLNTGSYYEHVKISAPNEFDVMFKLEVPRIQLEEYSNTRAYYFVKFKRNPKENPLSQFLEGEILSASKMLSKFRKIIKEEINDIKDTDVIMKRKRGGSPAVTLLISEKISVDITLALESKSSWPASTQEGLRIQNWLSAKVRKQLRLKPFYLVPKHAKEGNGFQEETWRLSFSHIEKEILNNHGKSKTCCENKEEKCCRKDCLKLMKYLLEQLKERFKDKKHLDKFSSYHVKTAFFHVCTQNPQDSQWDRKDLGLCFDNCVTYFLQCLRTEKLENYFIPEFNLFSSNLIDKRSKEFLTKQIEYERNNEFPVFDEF

TLR3 = biological target: T1, TLR3 (Homo sapiens, UniProt O15455); experiment: HEK-TLR3 NF-κB-luciferase reporter, poly(I:C) stimulation; format: cell-based; set-up: host or cells: HEK-Blue hTLR3 (HEK293); conditions: for IC50: 30-50 min before 0.5 μg/ml pIC overnight, read-out: IC50 (polyI:C sensing by TLR3)
T1 sequence (O15455 24-904): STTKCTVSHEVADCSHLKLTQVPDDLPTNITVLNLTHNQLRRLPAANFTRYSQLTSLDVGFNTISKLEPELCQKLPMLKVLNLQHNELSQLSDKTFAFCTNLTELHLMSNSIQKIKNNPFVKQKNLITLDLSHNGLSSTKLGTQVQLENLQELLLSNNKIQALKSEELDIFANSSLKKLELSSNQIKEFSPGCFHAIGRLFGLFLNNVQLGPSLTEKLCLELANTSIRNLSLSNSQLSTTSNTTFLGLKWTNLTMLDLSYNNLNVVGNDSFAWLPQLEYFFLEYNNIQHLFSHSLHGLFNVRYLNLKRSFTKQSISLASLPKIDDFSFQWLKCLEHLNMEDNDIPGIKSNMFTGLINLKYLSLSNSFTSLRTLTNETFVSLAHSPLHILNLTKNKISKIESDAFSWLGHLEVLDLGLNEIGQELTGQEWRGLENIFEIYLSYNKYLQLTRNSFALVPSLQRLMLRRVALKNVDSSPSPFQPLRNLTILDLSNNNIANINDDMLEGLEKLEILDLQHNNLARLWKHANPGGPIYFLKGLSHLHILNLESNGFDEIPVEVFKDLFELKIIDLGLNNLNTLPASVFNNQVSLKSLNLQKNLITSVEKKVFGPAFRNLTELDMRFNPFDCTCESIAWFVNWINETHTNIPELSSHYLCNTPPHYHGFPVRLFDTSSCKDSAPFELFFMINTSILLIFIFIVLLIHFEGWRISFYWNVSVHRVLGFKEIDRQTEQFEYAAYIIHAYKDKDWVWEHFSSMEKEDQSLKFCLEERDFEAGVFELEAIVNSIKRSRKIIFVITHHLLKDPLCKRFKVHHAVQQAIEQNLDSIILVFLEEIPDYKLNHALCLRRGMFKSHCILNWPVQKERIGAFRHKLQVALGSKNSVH

[1] = 3mer 2'OMe ASO at 2 uM, value relative to Ligand only = 1.000, NT = 0.000
[2] = 3-mers DNA PS 45 min, then 500 ng/ml polyI:C overnight, NF-κB-luciferase normalised to polyI:C only (Ligand 1.000, NT 0.000)

Row | Substance | TLR3 2uM (TLR3; [1]) | further results
1 | T*T*A* G*G*G* T*T*A* G*G*G* T*T*A* G*G*G* T*T*A* G*G*G [A151, reference compound] |  | IFN-β production after ISD70 transfection: reduction (cGAS): ~50%; IC50 (cGAS): 165 nM; inhibition of polyI:C sensing by TLR3 at 500 nM (in words) (TLR3; 500 nM ASOs/ODNs, poly(I:C) 1 μg/ml): only partially reduced polyL:C-dependent TLR3 activation; IC50 (TLR3): > 750 nM
2 | UGC (mU*mG*mC) | 0.903 | 
3 | dC*dC*dA (CCA; listed as DNA, chemistry not fully specified) | 0.917 | TLR3 2uM (TLR3; [2]): 0.763
4 | CUG (mC*mU*mG) | 0.870 | 
5 | CGU (mC*mG*mU) | 0.833 | 
6 | CUC (mC*mU*mC) | 0.874 | 
7 | mUmCmA (mU*mC*mA) [UCA, 3-mer 2′OMe PS oligo] | 0.765 | 
8 | dC*dC*dG (CCG; listed as DNA, chemistry not fully specified) | 0.770 | TLR3 2uM (TLR3; [2]): 0.867
9 | UUU (mU*mU*mU) | 0.970 | 
10 | mCmUmU (antisense mC*mU*mU) [660-3] | 0.846 | 
11 | dA*dG*dA (DNA AGA; listed as DNA, chemistry not fully specified) | 0.829 | TLR3 2uM (TLR3; [2]): 0.849
12 | AAU (antisense mA*mA*mU) | 0.888 | 
13 | AUU (mA*mU*mU) | 0.809 | 
14 | dC*dA*dA (CAA; listed as DNA, chemistry not fully specified) | 0.771 | TLR3 2uM (TLR3; [2]): 0.909
15 | dC*dC*dC (CCC; listed as DNA, chemistry not fully specified) | 0.933 | TLR3 2uM (TLR3; [2]): 0.811
16 | UCU (mU*mC*mU) | 0.804 | 
17 | CAU (mC*mA*mU) | 0.866 | 
18 | UGU (mU*mG*mU) | 0.967 | 
19 | mG*mC*mG*mG*mU*A*T*C*C*A*T*G*T*C*C*mC*mA*mG*mG*mC (mG*mC*mG*mG*mU*dA*dT*dC*dC*dA*dT*dG*dT*dC*dC*mC*mA*mG*mG*mC; antisense) [C2-Mut1] |  | IFN-β production after ISD70 transfection: reduction (cGAS): blocked; inhibition of ISD70-driven IP-10 production (in words) (cGAS; 2′OMe or PS oligos, 100-250 nM, pre-treatment as in figure legends, ISD70 2.5 μg/ml): most inhibitory sequence of ISD70 sensing; IC50 (cGAS; listed as C2-Mutl): ~56 nM; IC50 (cGAS): 56 nM; IC50 (TLR3): 62 nM
20 | UAA (mU*mA*mA) | 0.790 | 
21 | dC*dG*dA (CGA; listed as DNA, chemistry not fully specified) | 0.780 | TLR3 2uM (TLR3; [2]): 0.823
